# Experimental data: US20080063660A1, “Method to reduce the physiologic effects of drugs on mammals” (Anarco, Inc., priority 1993, published 2008)
# Counter-ions that a name gives are not always drawn.
# Key:
# [1] = system: rabbits; experiment: intravenous cocaine-HCl challenge of rabbits immunized with COALB
# Procedure: Rabbits were immunized with COALB by subcutaneous injection of 100 μg of the benzoylecgonine-conjugated immunogen every two weeks for a period of two months (four injections). Freund's complete adjuvant was used in the first injection and Freund's incomplete adjuvant was utilized for subsequent injections.
# [2] = stated in brackets beside the i.v. challenge dose; cited from earlier work
smiles,measurement,setting,value
COC(=O)[C@H]1[C@@H](OC(=O)c2ccccc2)C[C@@H]2CC[C@H]1N2C [cocaine-HCl],physiologic/toxic effects of cocaine in control (un-immunized) rabbits,[1]; cocaine-HCl 2 mg/kg i.v. in sterile saline,marked grande maul convulsions
same,time to recovery of control rabbits after cocaine,"[1]; cocaine-HCl 2 mg/kg i.v., un-immunized rabbits",10 to 15 min
same,LD50,[2],12 mg/kg
